{"source": "ChEMBL document CHEMBL3046523", "about": "“Protection of protein carbonyl formation by quercetin in erythrocytes subjected to oxidative stress” (Med Chem Res, 2010)", "key": {"[1]": {"test": "Antioxidant activity in plasma assessed as ABTS radical scavenging activity relative to trolox", "type": "functional, cell-free"}, "[2]": {"system": "Erythrocyte", "test": "Antioxidant activity in Homo sapiens (human) erythrocytes assessed as protection against t-BHP-induced oxidative stress at 0.1 to 100 uM", "type": "functional, cell-based", "conditions": "TDE = time-dependent effect"}, "[3]": {"system": "Erythrocyte", "test": "Antioxidant activity in Homo sapiens (human) erythrocytes assessed as protection against t-BHP-induced oxidative stress measured up to 180 min", "type": "functional, cell-based"}}, "data": [{"smiles": "O=c1c(O)c(-c2ccc(O)c(O)c2)oc2cc(O)cc(O)c12", "values": [{"measurement": "fold change (FC)", "setting": "[1]", "result": 6}, {"measurement": "Activity", "setting": "[2]", "result": "tde"}, {"measurement": "Activity", "setting": "[3]", "result": "Dose-dependent effect"}]}]}
